Values joined by “and” are separate entries in the source; they are usually repeats but may differ in a detail not shown here. Identical values can stand only once.
Assays:
beagles [1] = assay: 13-week repeated oral toxicity: observation of general symptoms; assay type: in vivo; conditions: repeated oral once a day for 13 weeks
Method: Furthermore, the present inventors performed a toxicity test on 5-hydroxy-1-methylimidazolidine-2,4-dione in beagles. Toxicity tests were conducted based on single oral administration and repeated oral administration for 13 weeks. The stability of the compound was analyzed by evaluating the analysis items including clinical symptoms, weight, feed intake, blood test, urine and eye test during the administration period.
General symptoms (such as vomiting, salivation, diarrhea, and abnormal behavior) and death were observed daily during the 13-week test period, starting from the day before administration, and abnormalities were recorded in clinical symptoms.

[2] = 13-week repeated oral toxicity: feed intake; assay type: in vivo, beagle; conditions: repeated oral once a day for 13 weeks
Method: During the 13-week test period starting from the day before administration, feed intake was measured a total of 14 times before administration (pre) and every week on the weight measurement day for 13 weeks after the first administration. Approximately 200 g/day/head of solid feed was injected into a feed container at a predetermined time on the day before the weight measurement day and consumed freely. After 24 hours, the remaining feed was measured the next day.

beagles [3] = assay: 13-week repeated oral toxicity: urine test; assay type: in vivo, beagle; conditions: for Acidity / Specific gravity / Creatinine UPC / Occult blood / Protein / Bilirubin: urine
Method: Urine tests were performed on the urine collected in the morning of blood donation day (Wednesday of the week) after fasting for about 16 hours, before administration, 4th week (day 29) after administration, the 8th week (day 57) after administration, and 13th week (day 92) after administration. Urine was collected from all the fasting subjects using a silicone tube connected to a duct after mounting a urine plate at the bottom of the cage for 16 hours. The collected urine was centrifuged at 1,500 rpm for 5 minutes to obtain the supernatant, then immersed in a urine strip (thinka Urine Test Strip, ARKRAY, Inc., Japan), the residue around the strip was removed, urine was analyzed using a urine analyzer (thinka RT-4010, ARKRAY, Inc., Japan), and the urine specific gravity of each subject was measured using a urine hydrometer (Master-URC.NM, ATAGO CO., LTD, Japan).

beagles [4] = assay: 13-week repeated oral toxicity: eye test; assay type: in vivo, beagle; conditions: before and after administration, 13 weeks
Method: Eye test were conducted in the afternoon in the blood test day and blood donation day before administration (pre), the 4th week (day 29) after administration, the 8th week (day 57), and the 13th week (day 92) after administration. After observing the appearance of the left and right eyes on all the subjects, both the left and right eyes were dilated with a mydriatic agent (Mydrin®-P eye drops, ingredients: tropicamide/phenylephrine hydrochloride Taejun Pharmaceutical), and then the vitreous body and retina were tested with an ophthalmoscope (Vantage Plus LED Convertible Wired, Keeler Instruments Inc. USA).

[5] = before administration, 200 mg/kg group, female, group mean
[6] = before administration, 200 mg/kg group, female, individual animal
[7] = before administration, 200 mg/kg group, female, individual animal, 200 mg/kg
[8] = before administration, 200 mg/kg group, male, group mean
[9] = before administration, 200 mg/kg group, male, individual animal
[10] = before administration, 200 mg/kg group, male, individual animal, 200 mg/kg
[11] = before administration, 500 mg/kg group, female, group mean
[12] = before administration, 500 mg/kg group, female, individual animal
[13] = before administration, 500 mg/kg group, female, individual animal, 500 mg/kg
[14] = before administration, 500 mg/kg group, male, group mean
[15] = before administration, 500 mg/kg group, male, individual animal
[16] = before administration, 500 mg/kg group, male, individual animal, 500 mg/kg
[17] = before administration, 1,000 mg/kg group, female, group mean
[18] = before administration, 1,000 mg/kg group, female, individual animal
[19] = before administration, 1,000 mg/kg group, male, group mean
[20] = before administration, 1,000 mg/kg group, male, individual animal
[21] = 200 mg/kg, females, repeated administration for 13 weeks, group Mean
[22] = 200 mg/kg, females, repeated administration for 13 weeks, individual animals
[23] = 200 mg/kg, males, repeated administration for 13 weeks, group Mean
[24] = 200 mg/kg, males, repeated administration for 13 weeks, individual animals
[25] = 500 mg/kg, females, repeated administration for 13 weeks, group Mean
[26] = 500 mg/kg, females, repeated administration for 13 weeks, individual animals
[27] = 500 mg/kg, males, repeated administration for 13 weeks, group Mean
[28] = 500 mg/kg, males, repeated administration for 13 weeks, individual animals
[29] = 1,000 mg/kg, females, repeated administration for 13 weeks, group Mean
[30] = 1,000 mg/kg, females, repeated administration for 13 weeks, individual animals
[31] = 1,000 mg/kg, males, repeated administration for 13 weeks, group Mean
[32] = 1,000 mg/kg, males, repeated administration for 13 weeks, individual animals

## CN1C(=O)NC(=O)C1O (centres unmarked) [KBP-001, 5-hydroxy-1-methylimidazolidine-2,4-dione]
Beagles [1]
  general symptoms and deaths: no unusual symptoms (vomiting, salivation, diarrhea, behavioral abnormalities, etc.) or deaths occurred
[2]
  feed intake: no significant difference in feed intake between respective groups
Beagles [3]; before and after administration, 13 weeks
  urine test items including urine specific gravity: fell within the normal physiological ranges
Beagles [3]; [5]
  Acidity: 7.833 PH
  Specific gravity: 1.03
Beagles [3]; [6]
  Creatinine UPC: <0.20 mg(ratio)
  Occult blood: 0.03(+−) RBC/dl
Beagles [3]; [7]
  Acidity: 8.0 PH and 7.0 PH and 8.5 PH
  Specific gravity: 1.02 (2×) and 1.04
Beagles [3]; [8]
  Acidity: 8.000 PH
  Specific gravity: 1.03
Beagles [3]; [9]
  Creatinine UPC: <0.20 mg(ratio)
  Protein: 15(+−)
Beagles [3]; [10]
  Acidity: 8.0 PH and 7.0 PH and 9.0 PH
  Specific gravity: 1.03
Beagles [3]; [11]
  Acidity: 6.833 PH
  Specific gravity: 1.02
Beagles [3]; [12]
  Creatinine UPC: <0.20 mg(ratio)
  Occult blood: 0.03(+−) RBC/dl
Beagles [3]; [13]
  Acidity: 6.5 PH and 7.0 PH (2×)
  Specific gravity: 1.02
Beagles [3]; [14]
  Acidity: 8.167 PH
  Specific gravity: 1.03
Beagles [3]; [15]
  Bilirubin: 0.5(1+)
  Creatinine UPC: <0.20 mg(ratio)
Beagles [3]; [16]
  Acidity: 8.5 PH (2×) and 7.5 PH
  Specific gravity: 1.03 (2×) and 1.04
Beagles [3]; [17]
  Acidity: 7.667 PH
  Specific gravity: 1.03
Beagles [3]; [18]
  Acidity: 8.0 PH and 7.5 PH (2×)
  Creatinine UPC: <0.20 mg(ratio)
  Specific gravity: 1.04 and 1.02 (2×)
Beagles [3]; [19]
  Acidity: 8.000 PH
  Specific gravity: 1.03
Beagles [3]; [20]
  Acidity: 8.0 PH and 9.0 PH and 7.0 PH
  Bilirubin: 0.5(1+)
  Creatinine UPC: <0.20 mg(ratio)
  Occult blood: 0.06(1+) RBC/dl
  Specific gravity: 1.03 and 1.02 and 1.04
Beagles [3]; [21]
  Acidity: 7.333 PH
  Specific gravity: 1.03
Beagles [3]; [22]
  Acidity: 7.0 PH (2×) and 8.0 PH
  Creatinine UPC: <0.20 mg(ratio)
Beagles [3]; [23]
  Acidity: 8.567 PH
  Specific gravity: 1.04
Beagles [3]; [24]
  Acidity: 8.0 PH and 9.0 PH (2×)
  Bilirubin: 0.5(1+)
  Creatinine UPC: <0.20 mg(ratio)
  Protein: 15(+−)
  Specific gravity: 1.04 and 1.05 and 1.02
Beagles [3]; [25]
  Acidity: 8.500 PH
  Specific gravity: 1.03
Beagles [3]; [26]
  Acidity: 9.0 PH and 8.5 PH and 8.0 PH
  Creatinine UPC: <0.20 mg(ratio)
  Specific gravity: 1.04 (2×) and 1.02
Beagles [3]; [27]
  Acidity: 8.500 PH
  Specific gravity: 1.04
Beagles [3]; [28]
  Acidity: 9.0 PH (2×) and 7.5 PH
  Creatinine UPC: <0.20 mg(ratio)
  Protein: 15(+−)
  Specific gravity: 1.05 and 1.02 and 1.04
Beagles [3]; [29]
  Acidity: 7.667 PH
  Specific gravity: 1.03
Beagles [3]; [30]
  Acidity: 8.0 PH and 7.5 PH (2×)
  Creatinine UPC: <0.20 mg(ratio)
  Specific gravity: 1.05 and 1.03 and 1.02
Beagles [3]; [31]
  Acidity: 7.833 PH
  Specific gravity: 1.03
Beagles [3]; [32]
  Acidity: 9.0 PH and 7.0 PH and 7.5 PH
  Creatinine UPC: <0.20 mg(ratio)
  Occult blood: 0.06(1+) RBC/dl and 0.03(+−) RBC/dl
  Protein: 15(+−)
  Specific gravity: 1.04 and 1.02 and 1.03
Beagles [4]
  eye test findings: no specific findings were observed

Source: patent publication US20240299359A1, “PHARMACEUTICAL COMPOSITION FOR ANIMALS CONTAINING 5-HYDROXY-METHYLIMIDAZOLIDINE-2,4-DIONE COMPOUND AS ACTIVE INGREDIENT” (KYONGBO PHARM. CO., LTD., priority 2021, published 2024)
